The numbers were not newly measured in PMC7674238 (Accounts of chemical research, 2020), which cites them from elsewhere.

Where two headings read alike, the source gives them in different places. Bounds are passed on as bounds.

Series [1] concerns vancomycin-resistant S. aureus (VRSA) strain VRS-2. As to conditions: for dose-dependent bactericidal effect, rank order (relative to 2 h baseline): n=5/dose.
The test system of series [2] is VanA VRE. The settings on record: vancomycin-resistant organisms.
In series [3] the test system is D-Ala-D-Lac. The settings on record: D-Ala-D-Lac vs D-Ala-D-Ala.
The conditions of series [4]: mice.
Series [5] deals with VanA VRE.
The conditions of series [6]: mice, iv.
Series [7] relates to VanA VRE. The settings on record: 10 μM.

For `CN[C@H](CC(C)C)C(=O)N[C@H]1C(=O)N[C@@H](CC(N)=O)C(=O)N[C@H]2C(=O)N[C@H]3C(=O)N[C@H](C(=O)N[C@H](C(=O)O)c4cc(O)cc(O)c4-c4cc3ccc4O)[C@H](O)c3ccc(c(Cl)c3)Oc3cc2cc(c3O[C@@H]2O[C@H](CO)[C@@H](O)[C@H](O)[C@H]2O[C@H]2C[C@](C)(N)[C@H](O)[C@H](C)O2)Oc2ccc(cc2Cl)[C@H]1O` [compound 1, vancomycin], the “dose-dependent bactericidal effect, rank order (relative to 2 h baseline)” value in series [1] is listed as 32 > 26 ≥ 16 > linezolid > 1. In series [2], the “loss in antimicrobial activity (resistance)” value is 1000 fold. For the same compound, the “loss in binding affinity between vancomycin and its target” value in series [3] is recorded as 1000 fold.
What is called AUC is concentration integrated over time. One may read the Cmax as the maximum level reached in the sampled fluid or tissue. In general, Vd refers to a proportionality between amount in the body and measured concentration, not a real space. `CN[C@H](CC(C)C)C(=O)N[C@H]1C(=O)N[C@@H](CC(N)=O)C(=O)N[C@H]2C(=O)NC3C(=O)N[C@H](C(=O)N[C@H](C(=O)NCCC[N+](C)(C)C)c4cc(O)cc(O)c4-c4cc3ccc4O)[C@H](O)c3ccc(c(Cl)c3)Oc3cc2cc(c3OC2OC(CO)C(O)[C@H](O)[C@@H]2O[C@H]2CC(C)(NCc3ccc(-c4ccc(Cl)cc4)cc3)[C@H](O)[C@H](C)O2)Oc2ccc(cc2Cl)[C@H]1O` (stereo partly shown) [compound 26, C1-CBP-vancomycin]: in series [4] (iv), the “Maximum tolerated dose (MTD)” value is no less than 50 mg/kg. The “tolerability” value in series [4] was “well tolerated in mice”. For the same compound, the “reduction in bacteria count” value in series [1] (VanA VRSA, VRS2, without dosing optimization) is recorded as roughly 3 log10. Moreover, the “resistance development on 50-day serial exposure” value in series [5] is “much more muted changes in potency”. Also, in series [6] (10 mg/kg), the AUC was 81.1 µg·h/mL, the CL was 2 mL/min/kg, the Cmax is 14100 ng/mL and the Vd is 1.25 L/kg. The t1/2 in series [6] (10 mg/kg) is listed as 7.0 h. Also, in series [6] (50 mg/kg (MTD)), the AUC was 430 µg·h/mL, the CL is 2 mL/min/kg, the Cmax was 58900 ng/mL and the Vd was 1.04 L/kg. Besides, the t1/2 in series [6] (50 mg/kg (MTD)) was 6.2 h. Moreover, in series [7], the “induction of bacteria cell permeabilization” value was “more significant”.
With `CC(=O)NC[C@H]1CN(c2ccc(N3CCOCC3)c(F)c2)C(=O)O1` [linezolid], the “dose-dependent bactericidal effect, rank order (relative to 2 h baseline)” value in series [1] is on record as 32 > 26 ≥ 16 > linezolid > 1.
